According to patent US5206238A, “Cholecystokinin antagonists” (Merck & Co., Inc., priority 1992, dated 1993):

Key:
DBA2 mice [1] = details: rodents, literature (Crawley); cited from earlier work
DBA2 mice [2] = assay: black/white exploration test (animal model of anxiety); format: in vivo; details: for active dose range: anxiolytic properties in mice
Text: The black/white exploration test [Crawley et al. Pharmacology, Biochemistry and Behav. 13, 167 (1980)] is a simple animal model of anxiety. Rodents placed in a two compartment box which consists of a brightly lit, white painted side and a dimly lit, black painted side, display a marked preference for the black side of the apparatus. This behavior is caused by the aversive properties of the brightly lit, white painted section. Classical anxiolytic drugs [such as diazepam, see Crawley, supra] and novel anxiolytic drugs [such as 5HT3 antagonists, see Jones et al. Br. J. Pharm.
A. Naive male DBA2 mice (25-30) were housed on a reversed light/dark cycle and tested during the dark phase of the cycle under dim red light. The apparatus consisted of an open topped box (40 cm long×27 cm wide×27 cm high) divided into a small area (2/5) and a large area (3/5) by a partition that extended 20 cm above the walls. There was a 7.5×7.5 cm opening in the partition at floor level. The small compartment was painted black and the large compartment white. The floor of each compartment was marked into 9 cm squares. The white compartment was illuminated by a 100 W tungsten bulb 17 cm above the box and the black compartment by a similarly placed 60 W red bulb.
Animals that had been injected with drug or vehicle were placed individually into the center of the white area and their behavior observed during a 5 minute period by remote video recording. Four behavioral parameters were recorded every minute: the number of exploratory rears in the white and black sections, the number of line crossings in the black and white sections, the number of transitions between the two sections and the time spent in the black and white sections. Animals were tested in treatment groups of 8-10 and vehicle controls were run on each test day. Data were analysed by ANOVA and Dunnetts test.

Sprague Dawley rats [3] = assay: exploratory/locomotor activity in automated activity cages; format: in vivo, rat
Procedure: B. The effects of CCK-8 and compound A on the exploratory behavior of the rat were examined in automated activity cages and by direct observation. […] [See Crawley, Pharm. Biochem & Behav. 20, 23-27 (1984).]
Male Sprague Dawley rats were injected ([…].) with CCK-8 and immediately placed in automated activity cages. Activity was measured for 30 minutes past injection.
Male SD rats were injected (s.c.) with the CCK antagonist compound A (0.0001-10 mg/kg) and immediately placed in the automated activity cages.

rats = assay: direct observation of motoric behaviors in a novel environment (perspex cage); format: in vivo, rat; details: 0.1 mg/kg, 15 minute period 15 minutes after treatment
Procedure: In order to assess further the effect of Compound A on exploration in a novel environment, the motoric hehaviors of rats placed in a perspex cage was recorded by direct observation for a 15 minute period 15 minutes after treatment with Compound A.
Experimenters (unaware of the treatments the animals had received) recorded the frequency and duration of rearing, sniffing, grooming and cage crossing using a keypad interfaced to a BBC microcomputer.

Sprague Dawley rats [4] = details: cited from earlier work
humans = details: reported studies; cited from earlier work

Molecule: CN1C(=O)CN=C(c2ccccc2)c2cc(Cl)ccc21 [diazepam]
- preference of the animal for the black dimly lit side (DBA2 mice [1]): decrease the preference

Molecule: CN1C(=O)[C@@H](NC(=O)c2cc3ccccc3[nH]2)N=C(c2ccccc2)c2ccccc21 [Compound A, 3(S)-(-)-1,3-dihydro-3-(2-indolecarbonylamino)-1-methyl-5-phenyl-2H-1,4-benzodiazepin-2-one]
- preference for locomotion (line crossings) in the black side (DBA2 mice [2]; 0.5, 5.0 and 500 ug/kg, male DBA2 mice): abolished
- difference in time spent in the black and white side (DBA2 mice [2]; 5.0 and 500 ug/kg, male DBA2 mice): abolished
- active dose range (DBA2 mice [2]): 0.05 to 5.0 µg/kg
- preference for rearing in the black side (DBA2 mice [2]; doses of 0.05, 0.5, 5.0 and 500 ug/kg, male DBA2 mice): significantly decreased
- habituation and period of exploratory activity (Sprague Dawley rats [3]; 0.0001-10 mg/kg s.c.): delayed habituation and prolonged the period of exploratory activity
- levels of activity at 25 minutes (Sprague Dawley rats [3]; 0.1 mg/kg s.c., 25 minutes): significantly above controls
- effect on activity at 25 minutes (Sprague Dawley rats [3]; higher and lower doses than 0.1 mg/kg s.c. (bell-shaped dose response)): no significant effect
- cage crossing (rats): significantly increased
- rearing (rats): significantly increased
- sniffing (rats): significantly increased

Molecule: CNC1=Nc2ccc(Cl)cc2C(c2ccccc2)=[N+]([O-])C1 [chlordiazepoxide]
- spontaneous locomotor activity in a novel environment (Sprague Dawley rats [4]; literature (McElroy et al.)): increases spontaneous locomotor activity

Molecule: CCK-4
- induction of panic (humans): induce panic

Molecule: CCK-8: carboxylterminal octapeptide of CCK-33, a naturally-occurring neuropeptide and the minimum fully active sequence
- exploratory behavior in a novel environment (Sprague Dawley rats [4]; exogenous CCK-8, literature (Crawley)): decreases exploratory behavior
- locomotor activity (Sprague Dawley rats [3]; 0.5-16 μg/kg i.p., 30 minutes past injection, novel environment): dose-dependently decreased
- induction of panic (humans): induced gastrointestinal effects but not panic symptoms

Molecule: Cc1cccc(NC(=O)N[C@@H]2N=C(c3ccccc3)c3ccccc3N(C)C2=O)c1 [Compound B, (R)-N-(2,3-dihydro-1-methyl-2-oxo-5-phenyl-1H-1,4-benzodiazepin-3-yl)-N'-(3-methylphenyl)urea]
- active dose range (DBA2 mice [2]): 0.005 to 0.05 µg/kg
- difference in time spent in the black and white side (DBA2 mice [2]; dose of 0.005 ug/kg, male DBA2 mice): decreased
- preference for rearing in the black side (DBA2 mice [2]; dose of 0.05 ug/kg, male DBA2 mice): abolished
